From patent publication US6664273B2, “Piperidine based MCH antagonists for treatment of obesity and CNS disorders” (Schering Corporation, priority 2001, dated 2003)

Target: T1, MCH receptor (Homo sapiens, UniProt Q99705)
T1 construct: expressed in transfected cells; host or cells: CHO cells
Assay: MCH Receptor Binding Assay
Conditions: [125I]-MCH, SPA, membranes from CHO cells expressing the MCH receptor
Protocol: Membranes from CHO cells expressing the MCH receptor were prepared by lysing cells with 5 mM HEPES for 15 min at 4C. Cell lysates were centrifuged ([…], 15 min) and the pellet was re-suspended in 5 mM HEPES. For each 96-well plate (Microlite, Dynex Technologies), 1 mg of cell membranes were incubated with 10 mg of wheat germ agglutinin SPA beads (Amersham) for 5 min at 4 C in a volume of 10 ml of binding buffer (25 mM HEPES, 10 mM MGCl2, 10 mM NaCl, 5 mM MnCl2, 0.1% BSA). The membrane/bead mixture was centrifuged (1500×g, 3.5 min), the supernatant was aspirated, and the pellet was re-suspended in 10 ml binding buffer. The centrifugation, aspiration and re-suspension were then repeated. The membrane/bead mixture (100 μl) was then added to 96-well plates containing 50 μl of 500 pM [^125I]-MCH (NEN) and […] of the appropriate concentration of compound (4× the desired final concentration). Nonspecific binding was determined by including 1 μM MCH in the binding reaction. The binding reaction was incubated at room temperature for 2 h. Plates were then analyzed in a TOPCOUNT microplate scintillation counter (Packard). Data was analyzed and Ki values were determined using GraphPad Prism.

T1 sequence (Q99705 whole entry): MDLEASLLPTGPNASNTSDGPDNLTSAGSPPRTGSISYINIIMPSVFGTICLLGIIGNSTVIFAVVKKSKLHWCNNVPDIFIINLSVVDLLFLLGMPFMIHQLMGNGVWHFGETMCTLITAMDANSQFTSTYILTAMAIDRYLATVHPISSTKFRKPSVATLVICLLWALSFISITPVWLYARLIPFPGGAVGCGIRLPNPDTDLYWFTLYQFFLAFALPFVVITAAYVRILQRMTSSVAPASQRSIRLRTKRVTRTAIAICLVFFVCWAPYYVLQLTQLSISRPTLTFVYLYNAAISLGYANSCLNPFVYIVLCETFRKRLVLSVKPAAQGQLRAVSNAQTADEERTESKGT

Structure (SMILES)	Ki
N#Cc1cccc(-c2ccc(C3(NCC(=O)Nc4ccc(F)c(Cl)c4)CCN(C4CCCC4)CC3)cc2)c1	0.0026 µM
N#Cc1cccc(-c2ccc(C3(NCC(=O)Nc4ccc(F)c(Cl)c4)CCNCC3)cc2)c1	0.003 µM
CN(CC(=O)Nc1cc(F)cc(F)c1)C1(c2ccc(-c3cccc(C#N)c3)cc2)CCN(C2CCCC2)CC1	0.0062 µM
O=C(CNC1(c2ccc(-c3cccc(F)c3)cc2)CCN(C2CCCC2)CC1)Nc1ccc(F)c(Cl)c1	0.099 µM
N#Cc1cccc(-c2ccc(C3(OCC(=O)Nc4ccc(Cl)c(C(F)(F)F)c4)CCN(CCO)CC3)cc2)c1	0.048 µM
N#Cc1cccc(-c2ccc(C3(CCC(=O)Nc4ccc(F)c(F)c4)CCN(CC4CC4)CC3)cc2)c1	0.008 µM
N#Cc1cccc(-c2ccc(C3(OCC(=O)Nc4cc(Cl)cc(Cl)c4)CCN(Cc4cccc(O)c4)CC3)cc2)c1	0.019 µM
CC(CCN1CCC(OCC(=O)Nc2cc(Cl)cc(Cl)c2)(c2ccc(-c3cccc(C#N)c3)cc2)CC1)c1ccccc1 (stereo not shown)	0.072 µM
N#Cc1cccc(-c2ccc(C3(CCC(=O)Nc4ccc(Cl)c(C(F)(F)F)c4)CCN(CC4CC4)CC3)cc2)c1	0.08 µM
N#Cc1cccc(-c2ccc(C3(OCC(=O)Nc4cc(Cl)cc(Cl)c4)CCN(C4CCCCC4)CC3)cc2)c1	0.019 µM
N#Cc1cccc(-c2ccc(C3(OCC(=O)Nc4cc(Cl)cc(Cl)c4)CCNCC3)cc2)c1	0.0032 µM
CN(CC(=O)Nc1ccc(F)c(Cl)c1)C1(c2ccc(-c3cccc(C#N)c3)cc2)CCN(S(C)(=O)=O)CC1	0.07 µM
N#Cc1cccc(-c2ccc(C3(OCC(=O)Nc4cc(Cl)cc(Cl)c4)CCN(Cc4ccsc4)CC3)cc2)c1	0.027 µM
CN(CC(=O)Nc1ccc(F)c(C(F)(F)F)c1)C1(c2ccc(-c3cccc(C#N)c3)cc2)CCN(C2CCCC2)CC1	0.018 µM
N#Cc1cccc(-c2ccc(C3(CCC(=O)Nc4ccc(F)c(F)c4)CCN(C4CCCC4)CC3)cc2)c1	0.015 µM
CN(CC(=O)Nc1ccc(F)c(Cl)c1)C1(c2ccc(-c3cccc(C#N)c3)cc2)CCN(C2CCCC2)CC1	0.0042 µM
N#Cc1cccc(-c2ccc(C3(OCC(=O)Nc4cc(Cl)cc(Cl)c4)CCN(C4CCC(c5ccccc5)CC4)CC3)cc2)c1 (stereo not shown)	0.095 µM
N#Cc1cccc(-c2ccc(C3(NCC(=O)Nc4cc(F)cc(F)c4)CCN(C4CCCC4)CC3)cc2)c1	0.0025 µM
N#Cc1cccc(-c2ccc(C3(OCC(=O)Nc4ccc(Cl)c(C(F)(F)F)c4)CCN(CC4CC4)CC3)cc2)c1	0.023 µM
N#Cc1cccc(-c2ccc(C3(N(CC(=O)Nc4cc(F)cc(F)c4)CC4CC4)CCN(C4CCCC4)CC3)cc2)c1	0.069 µM
N#Cc1cccc(-c2ccc(C3(CCC(=O)Nc4ccc(F)c(F)c4)CCN(C4CCC4)CC3)cc2)c1	0.019 µM
CC(C)(C)OC(=O)N1CCC(NCC(=O)Nc2ccc(F)c(Cl)c2)(c2ccc(-c3cccc(C#N)c3)cc2)CC1	0.056 µM
N#Cc1cccc(-c2ccc(C3(CCC(=O)Nc4cc(Cl)cc(Cl)c4)CCN(C4CCCC4)CC3)cc2)c1	0.0355 µM
CC(C)C1CCC(N2CCC(OCC(=O)Nc3cc(Cl)cc(Cl)c3)(c3ccc(-c4cccc(C#N)c4)cc3)CC2)CC1 (stereo not shown)	0.019 µM
N#Cc1cccc(-c2ccc(C3(OCC(=O)Nc4cc(Cl)cc(Cl)c4)CCN(Cc4cccs4)CC3)cc2)c1	0.026 µM

Structure (SMILES)	Ki
COc1ccccc1CN1CCC(OCC(=O)Nc2cc(Cl)cc(Cl)c2)(c2ccc(-c3cccc(C#N)c3)cc2)CC1	0.015 µM
CC1CCC(N2CCC(OCC(=O)Nc3cc(Cl)cc(Cl)c3)(c3ccc(-c4cccc(C#N)c4)cc3)CC2)C1 (stereo not shown)	0.011 µM
N#Cc1cccc(-c2ccc(C3(OCC(=O)Nc4cc(Cl)cc(Cl)c4)CCN(C4Cc5ccccc5C4)CC3)cc2)c1	0.062 µM
CC(=O)N1CCC(CCC(=O)Nc2ccc(F)c(F)c2)(c2ccc(-c3cccc(C#N)c3)cc2)CC1	0.061 µM
COc1cccc(-c2ccc(C3(NCC(=O)Nc4ccc(F)c(Cl)c4)CCN(C4CCCC4)CC3)cc2)c1	0.077 µM
N#Cc1cccc(-c2ccc(C3(CCC(=O)Nc4ccc(F)c(Cl)c4)CCN(C4CCCC4)CC3)cc2)c1	0.026 µM
CN(CC(=O)Nc1ccc(F)c(Cl)c1)C1(c2ccc(-c3cccc(C#N)c3)cc2)CCN(CCO)CC1	0.01 µM
CCC(C)CN1CCC(OCC(=O)Nc2cc(Cl)cc(Cl)c2)(c2ccc(-c3cccc(C#N)c3)cc2)CC1 (stereo not shown)	0.021 µM
O=C(CNC1(c2ccc(-c3cccc(-c4ncc[nH]4)c3)cc2)CCN(C2CCCC2)CC1)Nc1ccc(F)c(Cl)c1	0.0083 µM
CCN(CC)C(=O)N1CCC(CCC(=O)Nc2ccc(F)c(F)c2)(c2ccc(-c3cccc(C#N)c3)cc2)CC1	0.045 µM
N#Cc1cccc(-c2ccc(C3(OCC(=O)Nc4ccc(F)c(Cl)c4)CCN(CC4CC4)CC3)cc2)c1	0.002 µM
N#Cc1cccc(-c2ccc(C3(CCC(=O)Nc4cc(F)cc(C(F)(F)F)c4)CCN(CC4CC4)CC3)cc2)c1	0.049 µM
N#Cc1cccc(-c2ccc(C3(CCC(=O)Nc4cccc(OC(F)(F)F)c4)CCN(CC4CC4)CC3)cc2)c1	0.069 µM
N#Cc1cccc(-c2ccc(C3(NCC(=O)Nc4cc(Cl)cc(Cl)c4)CCN(C4CCCC4)CC3)cc2)c1	0.0032 µM
N#Cc1cccc(-c2ccc(C3(OCC(=O)Nc4cc(Cl)cc(Cl)c4)CCN(Cc4ccc(O)cc4)CC3)cc2)c1	0.02 µM
O=C(CNC1(c2ccc(-c3cccc(Cl)c3)cc2)CCN(C2CCCC2)CC1)Nc1ccc(F)c(Cl)c1	0.063 µM
N#Cc1cccc(-c2ccc(C3(OCC(=O)Nc4cc(Cl)cc(Cl)c4)CCN(C4CCC5CCCCC5C4)CC3)cc2)c1 (stereo not shown)	0.036 µM
N#Cc1cccc(-c2ccc(C3(NCC(=O)Nc4ccc(F)c(C(F)(F)F)c4)CCN(C4CCCC4)CC3)cc2)c1	0.016 µM
N#Cc1cccc(-c2ccc(C3(OCC(=O)Nc4cc(Cl)cc(Cl)c4)CCN(C4CCSC4)CC3)cc2)c1 (stereo not shown)	0.019 µM
CN1CCC(OCC(=O)Nc2cc(Cl)cc(Cl)c2)(c2ccc(-c3cccc(C#N)c3)cc2)CC1	0.004 µM
N#Cc1cccc(-c2ccc(C3(OCC(=O)Nc4cc(Cl)cc(Cl)c4)CCN(C4C5CCCC4CCC5)CC3)cc2)c1 (stereo not shown)	0.048 µM
N#Cc1cccc(-c2ccc(C3(OCC(=O)Nc4cc(Cl)cc(Cl)c4)CCN(CC4CC4)CC3)cc2)c1	0.0018 µM
CS(=O)(=O)c1ccc(CN2CCC(OCC(=O)Nc3cc(Cl)cc(Cl)c3)(c3ccc(-c4cccc(C#N)c4)cc3)CC2)cc1	0.076 µM
O=C(CNC1(c2ccc(-c3cccc(OC(F)(F)F)c3)cc2)CCN(C2CCCC2)CC1)Nc1ccc(F)c(Cl)c1	0.076 µM
N#Cc1cccc(-c2ccc(C3(OCC(=O)Nc4ccc(Cl)c(C(F)(F)F)c4)CCN(C4CCCC4)CC3)cc2)c1	0.049 µM

Structure (SMILES)	Ki
O=C(CNC1(c2ccc(-c3cc(Cl)ccc3Cl)cc2)CCN(C2CCCC2)CC1)Nc1ccc(F)c(Cl)c1	0.052 µM
COc1ccc(CN2CCC(OCC(=O)Nc3cc(Cl)cc(Cl)c3)(c3ccc(-c4cccc(C#N)c4)cc3)CC2)cc1	0.039 µM
CC1CCC(C)CC(N2CCC(OCC(=O)Nc3cc(Cl)cc(Cl)c3)(c3ccc(-c4cccc(C#N)c4)cc3)CC2)C1 (stereo not shown)	0.02 µM
CC(=O)C1CCC(N2CCC(OCC(=O)Nc3cc(Cl)cc(Cl)c3)(c3ccc(-c4cccc(C#N)c4)cc3)CC2)CC1 (stereo not shown)	0.006 µM
N#Cc1cccc(-c2ccc(C3(OCC(=O)Nc4cc(Cl)cc(Cl)c4)CCN(C4CCCC(C(F)(F)F)C4)CC3)cc2)c1 (stereo not shown)	0.086 µM
CC(=O)N1CCC(c2ccc(-c3cccc(C#N)c3)cc2)(N(C)CC(=O)Nc2ccc(F)c(Cl)c2)CC1	0.025 µM
CCN(CC(=O)Nc1ccc(F)c(Cl)c1)C1(c2ccc(-c3cccc(C#N)c3)cc2)CCN(C2CCCC2)CC1	0.0106 µM
N#Cc1cccc(-c2ccc(C3(OCC(=O)Nc4ccc(F)c(Cl)c4)CCN(CCO)CC3)cc2)c1	0.0082 µM
N#Cc1cccc(-c2ccc(C3(CCC(=O)Nc4cc(F)cc(F)c4)CCN(C4CCCC4)CC3)cc2)c1	0.036 µM
N#Cc1cccc(-c2ccc(C3(CCC(=O)Nc4cc(F)cc(F)c4)CCN(CC4CC4)CC3)cc2)c1	0.031 µM
O=Cc1cccc(-c2ccc(C3(NCC(=O)Nc4ccc(F)c(Cl)c4)CCN(C4CCCC4)CC3)cc2)c1	0.021 µM
N#Cc1cccc(-c2ccc(C3(OCC(=O)Nc4cc(Cl)cc(Cl)c4)CCN(CCCc4ccccc4)CC3)cc2)c1	0.05 µM
N#Cc1cccc(-c2ccc(C3(CCC(=O)Nc4cc(Cl)cc(Cl)c4)CCN(CC4CC4)CC3)cc2)c1	0.027 µM
CN(CC(=O)Nc1ccc(Cl)c(C(F)(F)F)c1)C1(c2ccc(-c3cccc(C#N)c3)cc2)CCN(C2CCCC2)CC1	0.016 µM
N#Cc1cccc(-c2ccc(C3(CCC(=O)Nc4ccc(F)c(F)c4)CCNCC3)cc2)c1	0.025 µM
CC(C)CCN1CCC(OCC(=O)Nc2cc(Cl)cc(Cl)c2)(c2ccc(-c3cccc(C#N)c3)cc2)CC1	0.03 µM
CN(CC(=O)Nc1cc(Cl)cc(Cl)c1)C1(c2ccc(-c3cccc(C#N)c3)cc2)CCN(C2CCCC2)CC1	0.0086 µM
N#Cc1cccc(-c2ccc(C3(OCC(=O)Nc4cc(Cl)cc(Cl)c4)CCN(C4CCOCC4)CC3)cc2)c1	0.009 µM
N#Cc1cccc(-c2ccc(C3(OCC(=O)Nc4cc(Cl)cc(Cl)c4)CCN(C4CCC(C(F)(F)F)CC4)CC3)cc2)c1 (stereo not shown)	0.049 µM
N#Cc1cccc(-c2ccc(C3(NCC(=O)Nc4ccc(Cl)c(C(F)(F)F)c4)CCN(C4CCCC4)CC3)cc2)c1	0.023 µM
CC(C)(C)OC(=O)N1CCC(CCC(=O)Nc2ccc(F)c(F)c2)(c2ccc(-c3cccc(C#N)c3)cc2)CC1	0.051 µM
COC1CCCC(CN2CCC(OCC(=O)Nc3cc(Cl)cc(Cl)c3)(c3ccc(-c4cccc(C#N)c4)cc3)CC2)O1 (stereo not shown)	0.02 µM
CC(CN1CCC(OCC(=O)Nc2cc(Cl)cc(Cl)c2)(c2ccc(-c3cccc(C#N)c3)cc2)CC1)c1ccccc1 (stereo not shown)	0.042 µM
